According to patent US9409905B2, “Antibacterial compounds and methods for use” (PTC THERAPEUTICS, INC., priority 2011, dated 2016):
Values after ≈ are worked out from the molar mass of the structure shown.

Columns and labels:
[1] = tested on: Escherichia coli (E. coli) BAS849; assay: Antibacterial activity, microbroth dilution MIC (Table 1); format: cell-based; conditions: microbroth dilution, super sensitive Gram-negative E. coli BAS849, read-out: MIC, BAS849
How it was run: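 Read-out: visual absence of growth. The lowest concentration meeting this gives the MIC, expressed in μg/mL, with microbroth dilution as the method.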

[2] = tested on: Staphylococcus aureus (S. aureus) 29213; assay: as above; format: cell-based; conditions: microbroth dilution, Gram-positive S. aureus 29213, read-out: MIC, 29213
How it was run: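 MIC (μg/mL) is taken as the lowest concentration with no macroscopically visible growth. Strains tested by microbroth dilution: Gram-positive S. aureus 29213, control Gram-negative E. coli 25922, and super-sensitive E. coli BAS849.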

E. coli 25922 = assay: as above; format: cell-based, Escherichia coli; conditions: Escherichia coli; microbroth dilution; control Gram-negative E. coli 25922 strain; read-out: MIC, 25922
How it was run: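 Each strain is exposed to test compound in a microbroth dilution series; visible growth is scored macroscopically, and the lowest growth-free concentration is recorded as MIC in μg/mL.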

E. coli LZ3111 = assay: Antibacterial activity, MIC, quinolone resistant strain (Table 2); format: cell-based; conditions: Escherichia coli, LZ3111, read-out: MIC LZ3111
How it was run: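 Broth microdilution. Read-out: MIC in μg/mL, taken as lowest concentration with no macroscopically visible growth.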

| Compound | MIC [1] | MIC [2] | MIC (E. coli 25922) | MIC (E. coli LZ3111) |
| --- | --- | --- | --- | --- |
| CCc1cc(C(=O)O)c(=O)[nH]c1-c1ccc2c(c1)cc(CN(C)C(C)=O)n2C [Cpd 145, 5-ethyl-6-(1-methyl-2-((N-methylacetamido)methyl)-1H-indol-5-yl)-2-oxo-1,2-dihydropyridine-3-carboxylic acid] | < 1 µg/mL | 12.5 to 150 µg/mL (≈ 32.8 to 393 µM) | 3.5 to 12.5 µg/mL (≈ 9.18 to 32.8 µM) | 12.5 to 150 µg/mL (≈ 32.8 to 393 µM) |
| CCc1c(-c2ccc3c(c2)cc(CNC(C)c2cccnc2)n3C)[nH]c(=O)c(C(=O)O)c1O.Cl (stereo not shown) [Cpd 242, 5-ethyl-4-hydroxy-6-(1-methyl-2-((1-(pyridin-3-yl)ethylamino)methyl)-1H-indol-5-yl)-2-oxo-1,2-dihydropyridine-3-carboxylic acid hydrochloride] | < 1 µg/mL | 1 to 3.5 µg/mL | 1 to 3.5 µg/mL | 12.5 to 150 µg/mL |
| CCc1cc(C(=O)O)c(=O)[nH]c1-c1ccc2c(c1)cc(CN1CCN(C(C)C)CC1)n2C [Cpd 141, 5-ethyl-6-(2-((4-isopropylpiperazin-1-yl)methyl)-1-methyl-1H-indol-5-yl)-2-oxo-1,2-dihydropyridine-3-carboxylic acid] | < 1 µg/mL | 12.5 to 150 µg/mL (≈ 28.6 to 344 µM) | 1 to 3.5 µg/mL (≈ 2.29 to 8.02 µM) | 12.5 to 150 µg/mL (≈ 28.6 to 344 µM) |
| CCc1c(-c2ccc3c(c2)cc(CN2CCC[C@H]2C(=O)OC)n3C)[nH]c(=O)c(C(=O)O)c1O [Cpd 190, (S)-5-ethyl-4-hydroxy-6-(2-((2-(methoxycarbonyl)pyrrolidin-1-yl)methyl)-1-methyl-1H-indol-5-yl)-2-oxo-1,2-dihydropyridine-3-carboxylic acid] | < 1 µg/mL | 3.5 to 12.5 µg/mL (≈ 7.72 to 27.6 µM) | 12.5 to 150 µg/mL (≈ 27.6 to 331 µM) | 12.5 to 150 µg/mL (≈ 27.6 to 331 µM) |
| CCc1cc(C(=O)O)c(=O)[nH]c1-c1ccc2c(c1)cc(CN1CC[C@H](N)C1)n2C [Cpd 126, (S)-6-(2-((3-aminopyrrolidin-1-yl)methyl)-1-methyl-1H-indol-5-yl)-5-ethyl-2-oxo-1,2-dihydropyridine-3-carboxylic acid] | 3.5 to 12.5 µg/mL (≈ 8.87 to 31.7 µM) | 12.5 to 150 µg/mL (≈ 31.7 to 380 µM) | 12.5 to 150 µg/mL (≈ 31.7 to 380 µM) | 12.5 to 150 µg/mL (≈ 31.7 to 380 µM) |
| CCc1cc(C(=O)O)c(=O)[nH]c1-c1cc2cc(CN(CC)CC)n(C)c2cc1C [Cpd 95, 6-(2-((diethylamino)methyl)-1,6-dimethyl-1H-indol-5-yl)-5-ethyl-2-oxo-1,2-dihydropyridine-3-carboxylic acid] | 12.5 to 150 µg/mL (≈ 31.6 to 379 µM) | 12.5 to 150 µg/mL (≈ 31.6 to 379 µM) | 12.5 to 150 µg/mL (≈ 31.6 to 379 µM) | 12.5 to 150 µg/mL (≈ 31.6 to 379 µM) |
| CCc1c(-c2ccc3c(c2)cc(CNCC(C)(C)C)n3C)[nH]c(=O)c(C(=O)O)c1O.Cl [Cpd 237, 5-ethyl-4-hydroxy-6-(1-methyl-2-((neopentylamino)methyl)-1H-indol-5-yl)-2-oxo-1,2-dihydropyridine-3-carboxylic acid hydrochloride] | < 1 µg/mL | 3.5 to 12.5 µg/mL | 1 to 3.5 µg/mL | 12.5 to 150 µg/mL |
| CCc1c(-c2ccc3c(c2)cc(CNCc2ccc(F)cc2)n3C)[nH]c(=O)c(C(=O)O)c1O [Cpd 292, 5-ethyl-6-(2-((4-fluorobenzylamino)methyl)-1-methyl-1H-indol-5-yl)-4-hydroxy-2-oxo-1,2-dihydropyridine-3-carboxylic acid] | < 1 µg/mL | 3.5 to 12.5 µg/mL (≈ 7.79 to 27.8 µM) | 1 to 3.5 µg/mL (≈ 2.22 to 7.79 µM) | 12.5 to 150 µg/mL (≈ 27.8 to 334 µM) |
| CCc1c(-c2ccc3c(c2)cc(CNCCN)n3C)[nH]c(=O)c(C(=O)O)c1O [Cpd 205, 6-(2-((2-aminoethylamino)methyl)-1-methyl-1H-indol-5-yl)-5-ethyl-4-hydroxy-2-oxo-1,2-dihydropyridine-3-carboxylic acid] | 1 to 3.5 µg/mL (≈ 2.6 to 9.1 µM) | 12.5 to 150 µg/mL (≈ 32.5 to 390 µM) | 12.5 to 150 µg/mL (≈ 32.5 to 390 µM) | 12.5 to 150 µg/mL (≈ 32.5 to 390 µM) |
| CCc1c(-c2ccc3c(c2)cc(CN2CCC(F)(F)C2)n3C)[nH]c(=O)c(C(=O)O)c1O [Cpd 176, 6-(2-((3,3-difluoropyrrolidin-1-yl)methyl)-1-methyl-1H-indol-5-yl)-5-ethyl-4-hydroxy-2-oxo-1,2-dihydropyridine-3-carboxylic acid] | < 1 µg/mL | 1 to 3.5 µg/mL (≈ 2.32 to 8.11 µM) | 12.5 to 150 µg/mL (≈ 29 to 348 µM) | 12.5 to 150 µg/mL (≈ 29 to 348 µM) |
| CCc1c(-c2ccc3c(c2)cc(CNC2CN(C)C2)n3C)[nH]c(=O)c(C(=O)O)c1O.Cl.Cl [Cpd 246, 5-ethyl-4-hydroxy-6-(1-methyl-2-((1-methylazetidin-3-ylamino)methyl)-1H-indol-5-yl)-2-oxo-1,2-dihydropyridine-3-carboxylic acid dihydrochloride] | 1 to 3.5 µg/mL | 12.5 to 150 µg/mL | 12.5 to 150 µg/mL | 3.5 to 12.5 µg/mL |
| CCc1cc(C(=O)O)c(=O)[nH]c1-c1ccc2c(c1)cc1n2CCNC1 [Cpd 66, 5-ethyl-2-oxo-6-(1,2,3,4-tetrahydropyrazino[1,2-a]indol-8-yl)-1,2-dihydropyridine-3-carboxylic acid] | < 1 µg/mL | 12.5 to 150 µg/mL (≈ 37.1 to 445 µM) | < 1 µg/mL | 12.5 to 150 µg/mL (≈ 37.1 to 445 µM) |
| CCc1cc(C(=O)O)c(=O)[nH]c1-c1ccc2c(c1)cc([C@H]1CCCN1)n2C.Cl [Cpd 67, (R)-5-ethyl-6-(1-methyl-2-(pyrrolidin-2-yl)-1H-indol-5-yl)-2-oxo-1,2-dihydropyridine-3-carboxylic acid hydrochloride] | < 1 µg/mL | 12.5 to 150 µg/mL | 1 to 3.5 µg/mL | 12.5 to 150 µg/mL |
| CCc1c(-c2ccc3c(c2)cc(CN2CCCCC2C(F)(F)F)n3C)[nH]c(=O)c(C(=O)O)c1O (stereo not shown) [Cpd 258, 5-ethyl-4-hydroxy-6-(1-methyl-2-((2-(trifluoromethyl)piperidin-1-yl)methyl)-1H-indol-5-yl)-2-oxo-1,2-dihydropyridine-3-carboxylic acid] | < 1 µg/mL | 3.5 to 12.5 µg/mL (≈ 7.33 to 26.2 µM) | 12.5 to 150 µg/mL (≈ 26.2 to 314 µM) | 12.5 to 150 µg/mL (≈ 26.2 to 314 µM) |
| CCc1cc(C(=O)O)c(=O)[nH]c1-c1ccc2nc(CN3CCCC3)cn2c1.Cl.Cl [Cpd 61, 5-ethyl-2-oxo-6-(2-(pyrrolidin-1-ylmethyl)imidazo[1,2-a]pyridin-6-yl)-1,2-dihydropyridine-3-carboxylic acid dihydrochloride] | 12.5 to 150 µg/mL | 12.5 to 150 µg/mL | 12.5 to 150 µg/mL | 12.5 to 150 µg/mL |
| CN(C)Cc1cc2cc(-c3cc(O)c(C(=O)O)c(=O)[nH]3)ccc2n1C [Cpd 326, 6-(2-((dimethylamino)methyl)-1-methyl-1H-indol-5-yl)-4-hydroxy-2-oxo-1,2-dihydropyridine-3-carboxylic acid] | 12.5 to 150 µg/mL (≈ 36.6 to 439 µM) | 12.5 to 150 µg/mL (≈ 36.6 to 439 µM) | 12.5 to 150 µg/mL (≈ 36.6 to 439 µM) | 12.5 to 150 µg/mL (≈ 36.6 to 439 µM) |
| CCc1cc(C(=O)O)c(=O)[nH]c1-c1cc2cc(CN3CCCC3)n(C)c2s1.Cl [Cpd 64, 5-ethyl-6-(6-methyl-5-(pyrrolidin-1-ylmethyl)-6H-thieno[2,3-b]pyrrol-2-yl)-2-oxo-1,2-dihydropyridine-3-carboxylic acid hydrochloride] | < 1 µg/mL | 12.5 to 150 µg/mL | 12.5 to 150 µg/mL | 12.5 to 150 µg/mL |
| CCc1c(-c2ccc3c(c2)cc(CN[C@H]2[C@@H]4CNC[C@@H]42)n3C)[nH]c(=O)c(C(=O)O)c1O [Cpd 198, 6-(2-(((1R,5S,6s)-3-azabicyclo[3.1.0]hexan-6-ylamino)methyl)-1-methyl-1H-indol-5-yl)-5-ethyl-4-hydroxy-2-oxo-1,2-dihydropyridine-3-carboxylic acid] | 1 to 3.5 µg/mL (≈ 2.37 to 8.28 µM) | 12.5 to 150 µg/mL (≈ 29.6 to 355 µM) | 12.5 to 150 µg/mL (≈ 29.6 to 355 µM) | 12.5 to 150 µg/mL (≈ 29.6 to 355 µM) |
| CCc1c(-c2ccc3c(c2)cc(CN2CCC(F)(F)CC2)n3C)[nH]c(=O)c(C(=O)O)c1O [Cpd 249, 6-(2-((4,4-difluoropiperidin-1-yl)methyl)-1-methyl-1H-indol-5-yl)-5-ethyl-4-hydroxy-2-oxo-1,2-dihydropyridine-3-carboxylic acid] | < 1 µg/mL | 1 to 3.5 µg/mL (≈ 2.24 to 7.86 µM) | 12.5 to 150 µg/mL (≈ 28.1 to 337 µM) | 12.5 to 150 µg/mL (≈ 28.1 to 337 µM) |
| CCc1cc(C(=O)O)c(=O)[nH]c1-c1ccc2c(c1)cc(CNC(C)(C)C)n2C [Cpd 113, 6-(2-((tert-butylamino)methyl)-1-methyl-1H-indol-5-yl)-5-ethyl-2-oxo-1,2-dihydropyridine-3-carboxylic acid] | < 1 µg/mL | 12.5 to 150 µg/mL (≈ 32.8 to 393 µM) | < 1 µg/mL | 12.5 to 150 µg/mL (≈ 32.8 to 393 µM) |
| CCc1cc(C(=O)O)c(=O)[nH]c1-c1ccc2c(c1)c(C#N)cn2C [Cpd 72, 6-(3-cyano-1-methyl-1H-indol-5-yl)-5-ethyl-2-oxo-1,2-dihydropyridine-3-carboxylic acid] | 3.5 to 12.5 µg/mL (≈ 10.9 to 38.9 µM) | 12.5 to 150 µg/mL (≈ 38.9 to 467 µM) | 12.5 to 150 µg/mL (≈ 38.9 to 467 µM) | 12.5 to 150 µg/mL (≈ 38.9 to 467 µM) |
| CCc1c(-c2ccc3c(c2)cc(CN2CCCCC2CCCOC)n3C)[nH]c(=O)c(C(=O)O)c1O (stereo not shown) [Cpd 260, 5-ethyl-4-hydroxy-6-(2-((2-(3-methoxypropyl)piperidin-1-yl)methyl)-1-methyl-1H-indol-5-yl)-2-oxo-1,2-dihydropyridine-3-carboxylic acid] | < 1 µg/mL | 3.5 to 12.5 µg/mL (≈ 7.27 to 26 µM) | 3.5 to 12.5 µg/mL (≈ 7.27 to 26 µM) | 12.5 to 150 µg/mL (≈ 26 to 311 µM) |
| CCc1c(-c2ccc3nc(N(C)C)oc3c2)[nH]c(=O)c(C(=O)O)c1O [Cpd 18, 6-(2-(dimethylamino)benzo[d]oxazol-6-yl)-5-ethyl-4-hydroxy-2-oxo-1,2-dihydropyridine-3-carboxylic acid] | 3.5 to 12.5 µg/mL (≈ 10.2 to 36.4 µM) | 1 to 3.5 µg/mL (≈ 2.91 to 10.2 µM) | 12.5 to 150 µg/mL (≈ 36.4 to 437 µM) | 12.5 to 150 µg/mL (≈ 36.4 to 437 µM) |
| CCc1c(-c2ccc3c(c2)cc(CN(C)C)n3C)[nH]c(=O)c(C(=O)O)c1C(=O)O [Cpd 111, 6-(2-((dimethylamino)methyl)-1-methyl-1H-indol-5-yl)-5-ethyl-2-oxo-1,2-dihydropyridine-3,4-dicarboxylic acid] | 12.5 to 150 µg/mL (≈ 31.5 to 377 µM) | 12.5 to 150 µg/mL (≈ 31.5 to 377 µM) | 12.5 to 150 µg/mL (≈ 31.5 to 377 µM) | 12.5 to 150 µg/mL (≈ 31.5 to 377 µM) |
| CCc1c(-c2ccc3c(c2)cc(CN(CC2CC2)C2CCCNC2)n3C)[nH]c(=O)c(C(=O)O)c1O (stereo not shown) [Cpd 265, 6-(2-(((cyclopropylmethyl)(piperidin-3-yl)amino)methyl)-1-methyl-1H-indol-5-yl)-5-ethyl-4-hydroxy-2-oxo-1,2-dihydropyridine-3-carboxylic acid] | 1 to 3.5 µg/mL (≈ 2.09 to 7.31 µM) | 1 to 3.5 µg/mL (≈ 2.09 to 7.31 µM) | 12.5 to 150 µg/mL (≈ 26.1 to 313 µM) | 12.5 to 150 µg/mL (≈ 26.1 to 313 µM) |
